Consider one molecule from patent US20230226199A1, “DENDRIMER COMPOSITIONS AND METHODS FOR DRUG DELIVERY” (Ashvattha Therapeutics, Inc., priority 2019, published 2023).

The target of this assay is JAK1 (Homo sapiens, UniProt P23458). Kind of assay: JAK1 binding affinity. From the text:
An exemplary conjugation of JAK1 inhibitor Target-007 to a dendrimer is shown below (Structure XXXIII). JAK1 binding affinity of Target-007 is about […] and the binding affinity of dendrimer conjugated Target-007 is about […].

JAK1, sequence (P23458 whole entry, species assumed): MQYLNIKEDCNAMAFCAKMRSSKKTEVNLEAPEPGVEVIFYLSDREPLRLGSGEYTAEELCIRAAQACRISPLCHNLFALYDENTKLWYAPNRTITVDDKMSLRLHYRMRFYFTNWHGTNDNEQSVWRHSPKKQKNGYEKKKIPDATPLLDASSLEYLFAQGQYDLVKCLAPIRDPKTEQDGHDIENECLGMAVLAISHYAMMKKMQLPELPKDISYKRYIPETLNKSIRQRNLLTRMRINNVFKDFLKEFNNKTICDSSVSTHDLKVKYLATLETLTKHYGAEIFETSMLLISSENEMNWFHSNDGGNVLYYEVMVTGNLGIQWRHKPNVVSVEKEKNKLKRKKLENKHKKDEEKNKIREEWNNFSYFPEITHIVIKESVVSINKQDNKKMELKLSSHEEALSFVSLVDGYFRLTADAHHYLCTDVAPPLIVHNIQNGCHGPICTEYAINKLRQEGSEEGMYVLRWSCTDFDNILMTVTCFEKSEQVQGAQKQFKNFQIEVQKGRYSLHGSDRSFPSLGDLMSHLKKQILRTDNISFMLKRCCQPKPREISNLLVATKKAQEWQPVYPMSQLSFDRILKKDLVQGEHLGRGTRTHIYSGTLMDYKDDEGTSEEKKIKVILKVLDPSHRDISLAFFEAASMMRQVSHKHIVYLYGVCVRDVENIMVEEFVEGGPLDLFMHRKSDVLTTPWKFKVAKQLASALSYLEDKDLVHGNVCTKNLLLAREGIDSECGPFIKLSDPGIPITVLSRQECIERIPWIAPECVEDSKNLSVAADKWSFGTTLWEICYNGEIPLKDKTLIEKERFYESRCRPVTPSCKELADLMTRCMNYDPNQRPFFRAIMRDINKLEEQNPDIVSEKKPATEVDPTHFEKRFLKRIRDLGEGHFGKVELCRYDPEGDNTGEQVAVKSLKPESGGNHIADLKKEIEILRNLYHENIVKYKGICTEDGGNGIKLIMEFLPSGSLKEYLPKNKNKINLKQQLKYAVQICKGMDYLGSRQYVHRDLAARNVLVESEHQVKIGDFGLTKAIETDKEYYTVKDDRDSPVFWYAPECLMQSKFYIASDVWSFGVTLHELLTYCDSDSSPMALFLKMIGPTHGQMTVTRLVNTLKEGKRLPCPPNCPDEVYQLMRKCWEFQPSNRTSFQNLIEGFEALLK

`COc1cc(-c2nc3c(NCC4CCNCC4)c(Cl)cnc3[nH]2)c(F)cc1OCCOCCOCCOCCN=[N+]=[N-]` [Target-007] had a Kd of approximately 1 nM.

The Kd is the concentration at which binding is half-saturated.
